Reference: paper PMC9497102, “Thiosemicarbazone Derivatives Developed to Overcome COTI-2 Resistance” (Cancers, 2022)

Columns and labels:
SW480/Coti cells = test: MTT viability assay, 72 h; type: cell-based, human; conditions: for IC50: Homo sapiens, SW480, 72 h, MTT
Procedure: (§1) In vitro tests were performed with human colorectal cancer SW480 cells (purchased from the American Type Culture Collection, Manassas, VA, USA), SW480/Tria, and the SW480/Coti cells, which are previously established sublines that are resistant to Triapine and COTI-2 [16], respectively. Additionally, small-cell lung carcinoma GLC-4 and its subline GLC-4/adr, which is a doxorubicin-resistant subline overexpressing ABCC1 (purchased from Dr. […], Groningen, The Netherlands), were used. All cells were maintained in a humidified 5% CO2 incubator at 37 °C and grown in minimal essential medium or RPMI-1640, respectively, supplemented with 10% fetal bovine serum (FBS). In order to maintain the resistant phenotype of GLC-4/adr cells, they were selected with doxorubicin (1152 nM) once a month. All cell lines were tested for mycoplasma contamination. For the cytotoxicity, cell viability, and proliferation studies, the 3-(4,5-dimethylthiazol-2-yl)-2,5-diphenyltetrazolium bromide (MTT) assay was utilized. Cells were seeded in 96-well plates at a density of 2 × 10^4 cells/well, with the exception of SW480/Tria, which was used at a density of 3 × 10^4 cells/well. After 24 h of recovery, cells were treated with the indicated concentration of drugs. For the drug combination experiments, verapamil and cyclosporine A (CSA) were used as ABCC1 modulators, and tetrathiomolybdate (TTM) was used as a copper chelator. The TSCs were dissolved in DMSO followed by subsequent dilutions in the medium in order to maintain a final DMSO concentration of <1%. After 72 h, the treatment solution was removed and replaced with 100 μL of MTT solution (EZ4U, Biomedica, Vienna, Austria), which was diluted 1:10 in the growth medium. A TECAN Infinite 200 Pro plate reader was used to measure the absorbance of the solution after 2-3 h incubation at 5% CO2 in an incubator at 37 °C. The anticancer activity was determined with GraphPad Prism software and indicated as IC50 values (half maximum inhibitory concentration).

GLC-4 cells = test: MTT viability assay, 72 h; type: cell-based; conditions: Homo sapiens, GLC4
Procedure: as §1

[1] = tested on: GLC-4/adr cells (ABCC1-overexpressing); test: MTT viability assay, 72 h; type: cell-based
Procedure: as §1

[2] = tested on: SW480 and SW480/Coti cells; test: HPLC-MS cell uptake measurements; type: cell-based, human; conditions: 10 µM, 3 h; for uptake lower in resistant SW480/Coti cells compared with parental SW480 cells: LC-MS (method not validated)
Procedure: Cells (1 × 10^6) were seeded in 25 cm^2 culture flasks and left to recover for 24 h at 37 °C and 5% CO2. The compounds were dissolved in DMSO (10 mM) and further diluted in the growth medium. The cells were treated in triplicate by replacing the growth medium with 5 mL of drug-containing medium (10 µM). After 3 h of incubation the cells were washed once with ice-cold PBS, and then collected by scraping into ice-cold PBS. The cell suspension was centrifuged for 5 min at 300× g and the supernatant was removed. Then, the cell pellets were lysed with three freeze/thaw cycles in liquid nitrogen/37 °C waterbath and re-suspended in 100 µL of water and 300 µL of cold acetonitrile (1:3 mixture). After 10 min of incubation on ice, the samples were centrifuged (15,080× g, 4 °C, and 10 min) and the supernatants were stored at −80 °C for HPLC-MS analysis. For the calibration curve, known concentrations of drugs were spiked into untreated cell extracts before adding acetonitrile. To normalize to the cell number, additional flasks were prepared (treated and untreated) and cells were collected by trypsinization and counted with counting chambers.
LC-MS analyses of the cell and media extracts were performed on a Vanquish Horizon UHPLC system (Thermo Fisher Scientific, Waltham, MA, USA) coupled to the ESI source of a timsTOF fleX mass spectrometer (Bruker Daltonics, Billerica, MA, USA). […] High-resolution ESI-MS spectra were recorded using the positive ion mode in the range of m/z 150–510 at a spectra rate of 2 Hz. […] For quantification, extracted ion chromatograms of m/z 249.1168 ± 0.0020 for COTI-NMe2 and of m/z 367.1699 ± 0.0020 for COTI-2 were calculated and the peak areas were determined using Bruker Compass Data Analysis 5.3.
In general, it must be mentioned that the LC-MS method for quantification of COTI-2 and COTI-NMe2 was not validated and that the deviation of the peak areas both within a batch and between batches was higher than expected. […]

SW480 cells = test: Mitotic nuclei by DAPI staining; type: cell-based, human; conditions: 24 h
Procedure: In order to detect mitotic nuclei, fixed cells were stained with DAPI. SW480 and SW480/Coti cells were seeded at a density of 2 × 10^5 cells per well in 6-well plates and left to recover for 24 h. This was followed by drug treatment at the indicated concentrations for 24 h. Then, cells were collected and spun on slides by centrifugation with a Thermo Scientific Cytospin 4 (400 rpm, 5 min at 4 °C). The slides were dried, and the cells were fixed with a methanol/acetone (1:1) mixture at −20 °C and stained with a solution containing DAPI (1 µg/mL). A final washing step with phosphate-buffered saline (PBS) was performed, followed by covering the slides with vectashield (H-100, Vector Laboratories, Inc., Newark, CA, USA) and coverslips. Mitotic nuclei were counted with Image J in three different areas per slide from three independent experiments.

[3] = Cyclic voltammetry of iron(III)–ligand (1:2) systems; type: physicochemical; conditions: cL = 1 mM, pH 7.40, 25 °C, 90% (v/v) DMSO/H2O, 0.01 V/s scan rate
Procedure: Cyclic voltammograms for the Fe(III) and Cu(II) complexes were recorded in 90% (v/v) DMSO/water solution containing 1 mM ligand and 0.5 mM FeCl3 or 1 mM CuCl2 using a conventional three-electrode system under nitrogen atmosphere and a PC-Controlled Electrochemical Measurement System (EF 451). The ionic strength was 0.10 M, adjusted by TBAN. Samples were purged for 15 min with Ar before recording the cyclic voltammograms. Platinum electrodes were used as the working and auxiliary electrodes, and Ag/AgCl (3 M KCl) was applied as the reference electrode. The electrochemical potentials were converted into the normal hydrogen electrode (NHE) scale by adding 0.222 V. The instrument was calibrated with an aqueous solution of K3[Fe(CN)6] (E1/2 = +0.386 V vs. NHE). Redox potentials were obtained at different scan rates (5–25 mV/s) in the range of −0.8 to +0.1 V. The dependence of the peak current values of the square root of the scan rates is shown in Figure S5 for the iron and copper complexes of COTI-NMeCy.

[4] = design: method as in PMID 33190481; conditions: after formation of mixed-ligand GSH adduct; cited from earlier work

IC50 (SW480/Coti cells) [nM]	E’ vs. NHE, iron(III)–ligand (1:2) systems [3]	Compound	Relative Resistance SW480/Coti (SW480/Coti cells; IC50 of resistant subline divided by IC50 of parental SW480)	IC50 (GLC-4 cells) [nM]	IC50 [1] [nM]	uptake lower in resistant SW480/Coti cells compared with parental SW480 cells [2]	lower intracellular drug levels compared with COTI-2 ([2]; both SW480 and SW480/Coti)	effect on mitotic cell fraction (SW480 cells)	redox reaction of the copper(II) complex with GSH [4]
50 ± 30	–	CN(C)C(=S)NN=C1CCCc2cccnc21 (mixture of isomers) [COTI-NMe2, 2-(6,7-Dihydroquinolin-8(5H)-ylidene)-N^4,N^4-dimethylhydrazine-1-carbothioamide]	1.3 ^n.s.	30 ± 30	60 ± 30	no difference	10–20 fold	(complete) loss of the mitotic cell fraction	–
–	+0.11 V	S=C(N/N=C1\CCCc2cccnc21)N1CCN(c2ccccn2)CC1 [COTI-2, 4-(pyridine-2-yl)-N-([(8E)-5,6,7,8-tetrahydroquinolin-8-ylidene]amino)piperazine-1-carbothioamide]	–	–	–	~ 40%	–	(complete) loss of the mitotic cell fraction	spectra were almost unchanged within 6 h
3980 ± 400	–	CN(C(=S)N/N=C1\CCCc2cccnc21)C1CCCCC1 [COTI-NMeCy, N-Cyclohexyl-2-(6,7-dihydroquinolin-8(5H)-ylidene)-N^4-methylhydrazine-1-carbothioamide]	–	170 ± 100	540 ± 150	–	–	–	–
